PMC7673538 (PLoS Biology, 2020)
Several values for one entry are separate records, joined by “and”; a condition that tells them apart may be missing. Equal values may be shown once. Read-outs that look alike come from different tables or passages of the source.

Experiments:
[1] = test system: CV-B3; experiment: microbe, parasite or virus in culture; assay type: cell-based, coxsackievirus B3; settings: Enterovirus B
[2] = test system: CV-A24v; experiment: microbe, parasite or virus in culture; assay type: cell-based, coxsackievirus A24v
[3] = test system: EV-A71; experiment: microbe, parasite or virus in culture; assay type: cell-based, enterovirus A71; settings: for EC50: Enterovirus A
[4] = test system: HeLa R19 cells
[5] = in vitro; settings: monkey
[6] = test system: CV-B3 (strain Nancy); assay type: cell-based, coxsackievirus B3
[7] = test system: EV-A71 (strain BrCr); assay type: cell-based, enterovirus A71
[8] = target: T1, human NET (Homo sapiens, UniProt P23975); assay type: cell-based; settings: for NET, Mean (Figure 8B): Control = 100; for NET, Mean as % (Figure 8B): Control = 100%
T1 construct: expressed in transfected cells; host or cells: HEK293 (gift of Dr. Hoener, F. Hoffmann-La Roche)
T1 sequence (P23975 whole entry): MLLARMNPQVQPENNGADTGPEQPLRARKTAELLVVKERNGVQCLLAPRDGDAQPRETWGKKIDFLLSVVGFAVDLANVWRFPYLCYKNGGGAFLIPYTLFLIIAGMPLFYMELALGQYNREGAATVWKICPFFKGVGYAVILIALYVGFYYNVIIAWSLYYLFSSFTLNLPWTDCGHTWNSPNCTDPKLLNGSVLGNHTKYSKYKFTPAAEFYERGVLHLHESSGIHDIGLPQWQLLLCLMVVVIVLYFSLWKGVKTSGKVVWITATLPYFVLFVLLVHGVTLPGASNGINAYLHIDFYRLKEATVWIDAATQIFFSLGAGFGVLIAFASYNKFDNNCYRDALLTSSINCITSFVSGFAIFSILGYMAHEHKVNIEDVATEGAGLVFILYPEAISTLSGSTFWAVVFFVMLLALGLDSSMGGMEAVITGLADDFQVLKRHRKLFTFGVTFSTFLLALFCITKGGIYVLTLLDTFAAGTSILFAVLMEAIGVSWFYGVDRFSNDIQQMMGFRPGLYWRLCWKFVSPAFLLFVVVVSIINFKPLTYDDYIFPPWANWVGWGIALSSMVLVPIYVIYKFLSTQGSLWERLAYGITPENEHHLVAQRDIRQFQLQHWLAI

[9] = test system: representative EVs and RVs; assay type: cell-based

## O=C(c1ccco1)N(Cc1ccc(C(F)(F)F)cc1)c1ccccc1 [Compound 19d, N-phenyl-N-(4-(trifluoromethyl)benzyl)furan-2-carboxamide]
[1]; CVB3, HeLa R19, read-out: CV-B3 EC50 Average
  EC50: 0.79 µM
[1]; CVB3, HeLa R19, read-out: CV-B3 Exp 1 EC50
  EC50: 0.73 µM
[1]; CVB3, HeLa R19, read-out: CV-B3 Exp2 EC50
  EC50: 0.85 µM
[1]; CVB3, HeLa R19, read-out: EC50 Exp1
  EC50: 1.04 µM
[1]; CVB3, HeLa R19, read-out: EC50 HelaR19 Average
  EC50: 0.77 µM
[1]; CVB3, HeLa R19, read-out: Exp 1 EC50 HelaR19
  EC50: 0.91 µM
[1]; CVB3, HeLa R19, read-out: Exp 2 EC50 HelaR19
  EC50: 0.63 µM
[1]; CVB3 / genotype 2c, HeLa R19, read-out: EC50 CV-B3 WT
  EC50: 1.26 ± 0.15 µM
[2]; Coxsackievirus, HeLa R19, read-out: EC50 Average
  EC50: 18.6 µM
[2]; Coxsackievirus, HeLa R19, read-out: EC50 CV-A24v strain 110386
  EC50: 15.7 ± 1.32 µM
[2]; Coxsackievirus, HeLa R19, read-out: EC50 CV-A24v strain 110389
  EC50: 18.6 ± 0.44 µM
[2]; Coxsackievirus, HeLa R19, read-out: EC50 CV-A24v strain 110390
  EC50: 16.8 ± 0.33 µM
[2]; Coxsackievirus, HeLa R19, read-out: EC50 CV-A24v strain 110392
  EC50: 19.1 ± 0.97 µM
[2]; Coxsackievirus, HeLa R19, read-out: EC50 Exp1
  EC50: 17 µM
[2]; Coxsackievirus, HeLa R19, read-out: EC50 Exp2
  EC50: 14.3 µM
[2]; read-out: EC50 Average
  EC50: 16.8 µM
[2]; read-out: EC50 Exp1
  EC50: 18.1 µM and 17.1 µM and 20 µM
[2]; read-out: EC50 Exp2
  EC50: 19 µM and 16.4 µM and 18.1 µM
[3]
  resistance of reverse-engineered EV-A71 2C M193L (in words): conferred 19d resistance
  resistance of reverse-engineered EV-A71 2C M193L/R151H (in words): further increased the resistance
  resistance of reverse-engineered EV-A71 2C M193L/R151H/T133S (in words): slightly further increased resistance
  resistance of reverse-engineered EV-A71 2C R151H (in words): did not confer resistance
[3]; 0.2344 µM
  multicycle replication assay read-out, EV-A71(BrCr): 5.8952 and 4.978 and 5.24
[3]; 0.4688 µM
  multicycle replication assay read-out, EV-A71(BrCr): 6.681 and 6.55 and 6.0262
[3]; 1.875 µM
  multicycle replication assay read-out, EV-A71(BrCr): 102.314 and 101.266 and 100.218
[3]; 3.75 µM
  multicycle replication assay read-out, EV-A71(BrCr): 101.266 and 99.5633 and 96.5502
[3]; 7.5 µM
  multicycle replication assay read-out, EV-A71(BrCr): 100.48 and 99.0393 and 95.2402
[3]; 15 µM
  multicycle replication assay read-out, EV-A71(BrCr): 94.1921 and 92.2271 and 88.5589
[3]; 30 µM
  multicycle replication assay read-out, EV-A71(BrCr): 98.1223 and 94.4541 and 90.524
[3]; EVA71, HeLa R19, read-out: EC50 Average
  EC50: 1.29 µM
[3]; EVA71, HeLa R19, read-out: EC50 EV-A71
  EC50: 0.27 ± 0.12 µM
[3]; EVA71, HeLa R19, read-out: EC50 EV-A71 strain BrCr
  EC50: 1.68 ± 0.62 µM
[3]; EVA71, HeLa R19, read-out: EC50 EV-A71 strain TW/2728/04
  EC50: 2.33 ± 1.23 µM
[3]; EVA71, HeLa R19, read-out: EC50 EV-A71 strain TW/2945/98
  EC50: 2.9 ± 1.03 µM
[3]; EVA71, HeLa R19, read-out: EC50 EV-A71 strain TW/70811/08
  EC50: 0.754 ± 0.01 µM
[3]; EVA71, HeLa R19, read-out: EC50 EV-A71 strain TW/72232/04
  EC50: 2.54 ± 1.72 µM
[3]; EVA71, HeLa R19, read-out: EC50 EV-A71 strain TW/96016/08
  EC50: 1.94 ± 0.82 µM
[4]
  cytotoxicity (in words): very minimal cytotoxicity
[5]; CC50
  CC50: 92.6 ± 1.51 µM
[5]; CC50 BGM Average
  CC50: 92.6 µM
[5]; Exp 1 CC50 BGM
  CC50: 91.1 µM
[5]; Exp 2 CC50 BGM
  CC50: 94.1 µM
[6]; compound concentration 10 µM
  virus titer, TCID50/ml (Figure 2A): 2187.76 TCID50/ml and 1625.6 TCID50/ml
[6]; compound concentration 30 µM
  virus titer, TCID50/ml (Figure 2A): 2187.76 TCID50/ml and 1479.11 TCID50/ml
[7]; compound concentration 10 µM
  virus titer, TCID50/ml (Figure 2A): 316.228 TCID50/ml
[7]; compound concentration 30 µM
  virus titer, TCID50/ml (Figure 2A): 316.228 TCID50/ml
[7]; compound concentration 100 µM
  virus titer, TCID50/ml (Figure 2A): 316.228 TCID50/ml
[7]; compound concentration 150 µM
  virus titer, TCID50/ml (Figure 2A): 316.228 TCID50/ml
[8]; 1µM
  NET, Mean (Figure 8B): 125.873
  NET, Mean as % (Figure 8B): 126%
[8]; 100µM
  NET, Mean (Figure 8B): 118.011
  NET, Mean as % (Figure 8B): 118%
[8]; HEK293 cells expressing human NET, 1 μM or 100 μM
  inhibition of NET function (in words): neither 12a, 19b, 19d, nor the combined compound 12b inhibited
[9]
  inhibition of contemporary/clinical isolates of EV-A71, CV-A24v and EV-D68 (in words): inhibited all clinical isolates of EV-A71, CV-A24v, and EV-D68 tested
  spectrum of antiviral activity (in words): inhibited all representative EVs and RVs
